According to ChEMBL document CHEMBL4325917, “Heterocyclic Amides as Kinase Inhibitors” (ACS Med Chem Lett, 2018):

Biological target: T1, Receptor-interacting serine/threonine-protein kinase 1 (Homo sapiens, UniProt Q13546)
T1 sequence (Q13546 whole entry): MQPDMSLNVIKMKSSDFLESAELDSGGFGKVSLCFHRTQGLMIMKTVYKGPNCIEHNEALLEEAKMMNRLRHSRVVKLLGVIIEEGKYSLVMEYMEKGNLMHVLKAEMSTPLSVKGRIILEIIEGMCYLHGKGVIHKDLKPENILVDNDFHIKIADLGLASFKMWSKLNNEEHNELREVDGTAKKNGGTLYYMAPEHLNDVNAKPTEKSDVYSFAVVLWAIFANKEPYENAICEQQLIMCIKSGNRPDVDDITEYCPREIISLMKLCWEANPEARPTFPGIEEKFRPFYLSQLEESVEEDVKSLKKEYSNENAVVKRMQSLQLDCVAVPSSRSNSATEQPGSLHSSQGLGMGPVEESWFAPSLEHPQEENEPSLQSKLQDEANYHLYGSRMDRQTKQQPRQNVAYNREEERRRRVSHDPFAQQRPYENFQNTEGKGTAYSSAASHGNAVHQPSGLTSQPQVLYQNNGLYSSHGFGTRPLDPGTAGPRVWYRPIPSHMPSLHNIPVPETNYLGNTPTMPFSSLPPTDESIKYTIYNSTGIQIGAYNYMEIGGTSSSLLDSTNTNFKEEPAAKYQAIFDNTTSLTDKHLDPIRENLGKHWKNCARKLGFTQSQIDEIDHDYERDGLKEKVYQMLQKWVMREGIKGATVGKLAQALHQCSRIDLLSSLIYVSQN
Test: Binding affinity to RIP1 (unknown origin) by fluorescence polarization assay

O=C(N[C@H]1CNc2cc(Cl)ccc2NC1=O)c1nnc(Cc2ccccc2)[nH]1
IC50: 20 nM
